Measurements published in patent US10059717B2, “Urea compounds containing 3,4-dihydropyrimido[4,5-D]pyrimidin-2(1H)-one skeleton as protein kinase inhibitors” (KOREA INSTITUTE OF SCIENCE AND TECHNOLOGY, priority 2016, dated 2018).

What was measured:
Test in all cases: Kinase panel biochemical assay
Conditions in all cases: 1 μM single concentration, read-out: % residual enzyme activity
ABL2/ARG = ABL2/ARG (Homo sapiens, UniProt P42684)
Description: (§1) In order to measure the protein kinase inhibitory activity (% inhibition) of the compounds of the present invention, biochemical assays were performed on the full kinase panel listed in the following Table 1.
(§2) As an test compound, 1-(3-(7-((6-(4-ethylpiperazine-1-carbonyl)pyridin-3-yl)amino)-1-methyl-2-oxo-1,4-dihydropyrimido[4,5-d]pyrimidin-3(2H)-yl)-4-methylphenyl)-3-(2-methoxyphenyl)urea (Compound No. 14) was used. The kinase inhibitory efficacy was measured upon treatment with a 1 μM single concentration of the test compound to calculate % residual enzyme activity value.
(§3) ABL1, FGFR2, TAOK2/TAO1, EPHA5, EPHB2, EPHB3, RET, LYN B, EPHA2, FRK/PTK5, EPHA8, LCK, EPHB4, FYN, KHS/MAP4K5, DDR1, EPHA3, P38a/MAPK14, EPHA4, FMS, EPHB1, HCK, FGFR1, ABL2/ARG, EPHA6, c-Src, ACK1, FLT4NEGFR3, ERBB4/HER4, DDR2, KDRNEGFR2, LYN, ZAK/MLTK, YES/YES1, BLK, FGR, MLCK2/MYLK2, TAOK1, BMX/ETK, BTK, EPHA1, JAK1, P38b/MAPK11, TIE2/TEK, FLT1NEGFR1, TXK, SRMS, RAF1, SIK1, MLK3/MAP3K11, PEAK1, TRKA, EPHA7, GLK/MAP4K3, MLK2/MAP3K10, TEC, CSK, TRKC, FES/FPS, SIK2, FGFR3, BRK, YSK4/MAP3K19, ARAF, PDGFRb, TNK1, GCK/MAP4K2, PDGFRa, TNIK, TAK1, ERBB2/HER2, LIMK1, HIPK4, FER, EGFR, JAK2, HPK1/MAP4K1, TRKB, RIPK3, LOK/STK10, LIMK2, MLK1/MAP3K9, BRAF, MEKK3, MEK5, STK32B/YANK2, FGFR4, MEKK2, SLK/STK2, FLT3, PKAcg, TAOK3/JIK, TYRO3/SKY, SIK3, IR, LRRK2, PYK2, NEK11, p70S6K/RPS6KB1, LATS2.

BLK = BLK (Homo sapiens, UniProt P51451)
Description: as §1, §2, §3

BRAF = BRAF (Homo sapiens, UniProt P15056)
Description: as §1, §2, §3

EGFR = EGFR (Homo sapiens, UniProt P00533)
Description: as §1, §2, §3

EPHB3 = EPHB3 (Homo sapiens, UniProt P54753)
EPHB3, sequence (P54753 34-998): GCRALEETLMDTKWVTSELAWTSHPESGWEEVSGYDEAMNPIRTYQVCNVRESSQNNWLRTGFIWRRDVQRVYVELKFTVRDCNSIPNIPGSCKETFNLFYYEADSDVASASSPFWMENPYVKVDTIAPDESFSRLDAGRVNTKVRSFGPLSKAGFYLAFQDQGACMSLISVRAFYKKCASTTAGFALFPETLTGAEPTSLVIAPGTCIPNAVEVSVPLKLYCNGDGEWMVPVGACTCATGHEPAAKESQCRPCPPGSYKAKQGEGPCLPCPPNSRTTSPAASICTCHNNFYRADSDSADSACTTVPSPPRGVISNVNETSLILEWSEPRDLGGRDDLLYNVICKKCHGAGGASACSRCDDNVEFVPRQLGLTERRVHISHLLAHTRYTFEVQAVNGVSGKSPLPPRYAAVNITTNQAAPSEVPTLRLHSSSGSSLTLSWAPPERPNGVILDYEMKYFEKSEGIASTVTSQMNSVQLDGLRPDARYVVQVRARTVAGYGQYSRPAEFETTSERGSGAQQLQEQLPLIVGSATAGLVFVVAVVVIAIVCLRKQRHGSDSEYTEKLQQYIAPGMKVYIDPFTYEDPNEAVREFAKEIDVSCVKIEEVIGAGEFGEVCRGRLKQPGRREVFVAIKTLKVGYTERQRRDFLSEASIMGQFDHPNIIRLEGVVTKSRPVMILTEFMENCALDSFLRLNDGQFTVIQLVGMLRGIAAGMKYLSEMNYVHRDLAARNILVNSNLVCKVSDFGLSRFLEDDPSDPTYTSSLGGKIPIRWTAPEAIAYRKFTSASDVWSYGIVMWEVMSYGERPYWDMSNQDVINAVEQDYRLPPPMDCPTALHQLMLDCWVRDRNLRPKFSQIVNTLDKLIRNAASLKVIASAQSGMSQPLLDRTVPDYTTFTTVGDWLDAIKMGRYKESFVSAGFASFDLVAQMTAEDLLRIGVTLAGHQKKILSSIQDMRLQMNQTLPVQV
Description: as §1, §2, §3

EPHB4 = EPHB4 (Homo sapiens, UniProt P54760)
EPHB4, sequence (P54760 16-987): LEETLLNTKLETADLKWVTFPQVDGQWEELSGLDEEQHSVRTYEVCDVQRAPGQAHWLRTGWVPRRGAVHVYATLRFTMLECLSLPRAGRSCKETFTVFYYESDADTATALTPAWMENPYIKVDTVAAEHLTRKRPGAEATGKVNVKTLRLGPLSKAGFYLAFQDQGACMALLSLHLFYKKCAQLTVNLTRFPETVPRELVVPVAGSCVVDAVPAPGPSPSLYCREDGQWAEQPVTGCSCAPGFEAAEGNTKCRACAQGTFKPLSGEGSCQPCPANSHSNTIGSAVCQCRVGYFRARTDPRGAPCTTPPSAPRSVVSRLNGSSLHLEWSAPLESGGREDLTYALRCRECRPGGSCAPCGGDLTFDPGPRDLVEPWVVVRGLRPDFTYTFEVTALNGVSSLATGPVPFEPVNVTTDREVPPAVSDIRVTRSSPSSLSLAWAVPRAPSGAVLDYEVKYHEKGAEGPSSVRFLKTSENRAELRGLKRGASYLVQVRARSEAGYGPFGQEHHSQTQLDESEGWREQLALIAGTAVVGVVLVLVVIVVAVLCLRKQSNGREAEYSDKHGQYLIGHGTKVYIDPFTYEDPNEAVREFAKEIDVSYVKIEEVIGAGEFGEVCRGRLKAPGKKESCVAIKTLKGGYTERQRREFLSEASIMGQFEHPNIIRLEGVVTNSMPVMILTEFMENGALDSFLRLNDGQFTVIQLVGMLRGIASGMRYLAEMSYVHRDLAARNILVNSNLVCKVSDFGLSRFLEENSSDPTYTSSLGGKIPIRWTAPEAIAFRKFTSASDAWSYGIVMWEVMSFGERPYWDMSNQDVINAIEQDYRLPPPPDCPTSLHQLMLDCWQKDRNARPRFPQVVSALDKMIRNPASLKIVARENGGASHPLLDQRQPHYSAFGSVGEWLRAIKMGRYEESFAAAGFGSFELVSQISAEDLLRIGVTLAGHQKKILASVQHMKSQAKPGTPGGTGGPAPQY
Description: as §1, §2, §3

ERBB4/HER4 = ERBB4/HER4 (Homo sapiens, UniProt Q15303)
ERBB4/HER4, sequence (Q15303 26-1308): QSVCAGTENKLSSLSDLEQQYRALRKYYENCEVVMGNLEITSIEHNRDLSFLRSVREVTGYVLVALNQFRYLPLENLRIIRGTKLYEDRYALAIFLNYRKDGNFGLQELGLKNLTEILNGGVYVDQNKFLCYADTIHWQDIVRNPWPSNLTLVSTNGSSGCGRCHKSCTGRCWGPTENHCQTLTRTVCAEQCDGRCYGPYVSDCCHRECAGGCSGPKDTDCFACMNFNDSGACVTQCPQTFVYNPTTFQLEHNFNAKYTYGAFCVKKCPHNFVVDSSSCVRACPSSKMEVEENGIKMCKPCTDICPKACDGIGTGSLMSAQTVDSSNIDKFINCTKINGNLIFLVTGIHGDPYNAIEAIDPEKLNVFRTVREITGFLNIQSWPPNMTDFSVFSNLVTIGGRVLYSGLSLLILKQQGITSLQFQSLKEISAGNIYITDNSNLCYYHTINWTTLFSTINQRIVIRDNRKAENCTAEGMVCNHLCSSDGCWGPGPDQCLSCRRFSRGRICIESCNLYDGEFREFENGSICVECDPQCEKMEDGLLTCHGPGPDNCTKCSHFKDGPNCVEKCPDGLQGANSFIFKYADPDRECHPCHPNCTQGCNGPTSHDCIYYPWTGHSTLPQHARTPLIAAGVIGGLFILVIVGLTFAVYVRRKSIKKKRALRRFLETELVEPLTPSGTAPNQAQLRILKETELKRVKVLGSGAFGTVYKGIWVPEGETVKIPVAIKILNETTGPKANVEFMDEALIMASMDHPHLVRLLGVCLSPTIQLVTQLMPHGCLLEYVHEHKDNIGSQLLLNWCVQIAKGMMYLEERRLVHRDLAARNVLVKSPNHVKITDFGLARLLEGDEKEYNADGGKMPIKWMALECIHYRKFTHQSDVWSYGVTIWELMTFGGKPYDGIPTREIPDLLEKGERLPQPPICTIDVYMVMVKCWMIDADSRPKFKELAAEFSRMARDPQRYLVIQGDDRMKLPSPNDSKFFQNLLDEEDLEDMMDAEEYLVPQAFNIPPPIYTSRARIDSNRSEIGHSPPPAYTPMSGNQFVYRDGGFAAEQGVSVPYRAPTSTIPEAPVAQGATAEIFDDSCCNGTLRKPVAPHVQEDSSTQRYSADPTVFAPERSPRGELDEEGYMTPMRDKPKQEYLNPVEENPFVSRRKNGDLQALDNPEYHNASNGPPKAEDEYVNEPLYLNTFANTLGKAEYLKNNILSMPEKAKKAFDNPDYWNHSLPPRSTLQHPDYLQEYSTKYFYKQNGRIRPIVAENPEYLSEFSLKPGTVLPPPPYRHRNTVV
Description: as §1, §2, §3

FER = FER (Homo sapiens, UniProt P16591)
Description: as §1, §2, §3

FGFR1 = FGFR1 (Homo sapiens, UniProt P11362)
Description: as §1, §2, §3

FGFR4 = FGFR4 (Homo sapiens, UniProt P22455)
Description: as §1, §2, §3

FLT3 = FLT3 (Homo sapiens, UniProt P36888)
Description: as §1, §2, §3

GLK/MAP4K3 = GLK/MAP4K3 (Homo sapiens, UniProt Q8IVH8)
Description: as §1, §2, §3

HCK = HCK (Homo sapiens, UniProt P08631)
HCK, sequence (P08631 whole entry): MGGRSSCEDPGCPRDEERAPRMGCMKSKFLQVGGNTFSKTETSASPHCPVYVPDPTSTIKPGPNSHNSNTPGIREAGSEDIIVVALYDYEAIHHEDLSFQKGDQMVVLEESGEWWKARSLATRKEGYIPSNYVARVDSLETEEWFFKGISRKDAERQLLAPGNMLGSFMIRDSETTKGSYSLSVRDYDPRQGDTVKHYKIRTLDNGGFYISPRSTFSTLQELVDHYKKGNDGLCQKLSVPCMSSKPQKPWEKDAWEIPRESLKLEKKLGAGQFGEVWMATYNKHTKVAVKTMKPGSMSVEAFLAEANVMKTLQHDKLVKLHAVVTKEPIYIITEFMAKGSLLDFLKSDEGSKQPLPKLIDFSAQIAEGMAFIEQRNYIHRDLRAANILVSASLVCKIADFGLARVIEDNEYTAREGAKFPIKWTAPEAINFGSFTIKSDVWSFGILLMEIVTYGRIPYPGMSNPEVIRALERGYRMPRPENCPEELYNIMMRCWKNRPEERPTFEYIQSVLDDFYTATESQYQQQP
Description: as §1, §2, §3

HPK1/MAP4K1 = HPK1/MAP4K1 (Homo sapiens, UniProt Q92918)
HPK1/MAP4K1, sequence (Q92918 whole entry): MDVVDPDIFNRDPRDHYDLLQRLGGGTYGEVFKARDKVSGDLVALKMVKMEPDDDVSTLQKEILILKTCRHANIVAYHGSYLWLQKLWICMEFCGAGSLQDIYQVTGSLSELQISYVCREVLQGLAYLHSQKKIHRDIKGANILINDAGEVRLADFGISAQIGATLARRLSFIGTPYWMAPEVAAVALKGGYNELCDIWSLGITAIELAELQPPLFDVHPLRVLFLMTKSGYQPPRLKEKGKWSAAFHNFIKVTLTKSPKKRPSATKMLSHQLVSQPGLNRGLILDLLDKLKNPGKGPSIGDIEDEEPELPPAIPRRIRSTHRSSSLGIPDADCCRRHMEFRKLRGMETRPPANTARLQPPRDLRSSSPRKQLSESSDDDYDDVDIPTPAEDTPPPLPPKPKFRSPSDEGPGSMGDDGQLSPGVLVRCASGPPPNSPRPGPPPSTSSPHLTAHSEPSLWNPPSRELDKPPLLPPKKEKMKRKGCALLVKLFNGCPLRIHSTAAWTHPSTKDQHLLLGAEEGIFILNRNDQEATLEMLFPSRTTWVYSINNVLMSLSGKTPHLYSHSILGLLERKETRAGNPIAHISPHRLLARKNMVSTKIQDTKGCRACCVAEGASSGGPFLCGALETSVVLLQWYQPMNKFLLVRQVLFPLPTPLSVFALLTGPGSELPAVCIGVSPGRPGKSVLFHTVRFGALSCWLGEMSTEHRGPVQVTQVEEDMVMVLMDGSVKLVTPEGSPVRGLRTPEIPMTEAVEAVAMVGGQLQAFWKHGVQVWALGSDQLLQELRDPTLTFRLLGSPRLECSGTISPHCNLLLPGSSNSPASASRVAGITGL
Description: as §1, §2, §3

JAK2 = JAK2 (Homo sapiens, UniProt O60674)
Description: as §1, §2, §3

KDRNEGFR2 = KDRNEGFR2 (Homo sapiens, UniProt P35968)
Description: as §1, §2, §3

LATS2 = LATS2 (Homo sapiens, UniProt Q9NRM7)
Description: as §1, §2, §3

LIMK2 = LIMK2 (Homo sapiens, UniProt P53671)
Description: as §1, §2, §3

LYN = LYN (Homo sapiens, UniProt P07948)
LYN, sequence (P07948 whole entry): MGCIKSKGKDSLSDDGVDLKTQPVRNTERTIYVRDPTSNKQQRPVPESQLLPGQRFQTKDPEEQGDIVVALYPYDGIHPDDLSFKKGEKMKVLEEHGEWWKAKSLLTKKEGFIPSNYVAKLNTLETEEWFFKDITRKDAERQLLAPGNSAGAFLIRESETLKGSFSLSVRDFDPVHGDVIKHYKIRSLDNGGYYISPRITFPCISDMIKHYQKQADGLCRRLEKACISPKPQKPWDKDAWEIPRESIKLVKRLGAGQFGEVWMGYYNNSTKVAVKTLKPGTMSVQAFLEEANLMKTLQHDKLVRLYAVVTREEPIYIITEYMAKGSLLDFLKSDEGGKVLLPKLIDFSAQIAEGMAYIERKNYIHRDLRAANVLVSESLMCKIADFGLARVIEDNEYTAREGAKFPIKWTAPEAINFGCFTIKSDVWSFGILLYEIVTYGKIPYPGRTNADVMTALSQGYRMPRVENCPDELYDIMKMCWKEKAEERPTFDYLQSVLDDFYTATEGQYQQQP
Description: as §1, §2, §3

LYN B = LYN B (Homo sapiens, UniProt P07948)
Description: as §1, §2, §3

MLK1/MAP3K9 = MLK1/MAP3K9 (Homo sapiens, UniProt P80192)
Description: as §1, §2, §3

MLK3/MAP3K11 = MLK3/MAP3K11 (Homo sapiens, UniProt Q16584)
Description: as §1, §2, §3

P38b/MAPK11 = P38b/MAPK11 (Homo sapiens, UniProt Q15759)
Description: as §1, §2, §3

PDGFRa = PDGFRa (Homo sapiens, UniProt P16234)
Description: as §1, §2, §3

PKAcg = PKAcg (Homo sapiens, UniProt P22612)
Description: as §1, §2, §3

SIK3 = SIK3 (Homo sapiens, UniProt Q9Y2K2)
Description: as §1, §2, §3

TAOK3/JIK = TAOK3/JIK (Homo sapiens, UniProt Q9H2K8)
Description: as §1, §2, §3

TIE2/TEK = TIE2/TEK (Homo sapiens, UniProt Q02763)
Description: as §1, §2, §3

TNIK = TNIK (Homo sapiens, UniProt Q9UKE5)
Description: as §1, §2, §3

TRKA = TRKA (Homo sapiens, UniProt P04629)
Description: as §1, §2, §3

TYRO3/SKY = TYRO3/SKY (Homo sapiens, UniProt Q06418)
Description: as §1, §2, §3

- remaining activity at 1 µM (ABL2/ARG): ≤ 30%
- remaining activity at 1 µM (BLK): ≤ 30%
- remaining activity at 1 µM (BRAF): ≤ 30%
- remaining activity at 1 µM (EGFR): ≤ 30%
- remaining activity at 1 µM (EPHB3): ≤ 30%
- remaining activity at 1 µM (EPHB4): ≤ 30%
- remaining activity at 1 µM (ERBB4/HER4): ≤ 30%
- remaining activity at 1 µM (FER): ≤ 30%
- remaining activity at 1 µM (FGFR1): ≤ 30%
- remaining activity at 1 µM (FGFR4): ≤ 30%
- remaining activity at 1 µM (FLT3): ≤ 30%
- remaining activity at 1 µM (GLK/MAP4K3): ≤ 30%
- remaining activity at 1 µM (HCK): ≤ 30%
- remaining activity at 1 µM (HPK1/MAP4K1): ≤ 30%
- remaining activity at 1 µM (JAK2): ≤ 30%
- remaining activity at 1 µM (KDRNEGFR2): ≤ 30%
- remaining activity at 1 µM (LATS2): ≤ 30%
- remaining activity at 1 µM (LIMK2): ≤ 30%
- remaining activity at 1 µM (LYN): ≤ 30%
- remaining activity at 1 µM (LYN B): ≤ 30%
- remaining activity at 1 µM (MLK1/MAP3K9): ≤ 30%
- remaining activity at 1 µM (MLK3/MAP3K11): ≤ 30%
- remaining activity at 1 µM (P38b/MAPK11): ≤ 30%
- remaining activity at 1 µM (PDGFRa): ≤ 30%
- remaining activity at 1 µM (PKAcg): ≤ 30%
- remaining activity at 1 µM (SIK3): ≤ 30%
- remaining activity at 1 µM (TAOK3/JIK): ≤ 30%
- remaining activity at 1 µM (TIE2/TEK): ≤ 30%
- remaining activity at 1 µM (TNIK): ≤ 30%
- remaining activity at 1 µM (TRKA): ≤ 30%
- remaining activity at 1 µM (TYRO3/SKY): ≤ 30%
Structure (SMILES): CCN1CCN(C(=O)c2ccc(Nc3ncc4c(n3)N(C)C(=O)N(c3cc(NC(=O)Nc5ccccc5OC)ccc3C)C4)cn2)CC1 [Compound No. 14, 1-(3-(7-((6-(4-ethylpiperazin-1-carbonyl)pyridin-3-yl)amino)-1-methyl-2-oxo-1,4-dihydropyrimido[4,5-d]pyrimidin-3(2H)-yl)-4-methylphenyl)-3-(2-methoxyphenyl)urea]
